Columns and labels:
PD-1/PD-L1 = PD-1/PD-L1 (Homo sapiens (Human), UniProt Q9NZQ7); test: PD-1/PD-L1 Binding Assay (Alphascreen)
Outline: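 PD-1/PD-L1 binding detected by anti-6×His acceptor and streptavidin donor beads after 120 min in the dark at 25 °C. Beforehand, the two proteins were incubated 15 min at 25 °C with inhibitor at 0.015–300 nM (1% DMSO). IC50 comes from a log concentration–response curve.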

[1] = Pharmacokinetic Assay, single oral dose 100 mg/kg (Table 11); type: in vivo; conditions: mouse, C57 female mice, oral (intragastric), plasma
Procedure: Adult C57 female mice were received to single-dose of the test compounds with […], 10% Kolliphor^@HS 15 and 80% saline as excipients, the mice (n=9) were giving oral administration (intragastric administration) with the compounds at a dose of 100 mg/kg. Time of blood collection: 15 min, 30 min, 1 h, 2 h, 4 h, 7 h, 24 h. Approximately 0.1 mL of whole blood was collected from retro-orbital venous plexus of 3 mice at each time point, and placed into tubes that contained K2-EDTA as an anticoagulant. The whole blood was centrifuged at 4° C. and 4000 rpm for 10 min. The plasma was transferred into centrifuge tubes, and stored at −20° C. until being analyzed. Concentrations of test compounds in the plasma samples were analyzed with liquid chromatography-tandem mass spectrometry (LC-MS/MS). Plasma concentration-time data of individual animals was analyzed using Microsoft Excel 2010. Non-compartmental model was introduced in concentration analysis. The pharmacokinetic parameters of the test compounds were calculated using WinNonlin (version 4.1; Pharsight) software.

Chain of PD-1/PD-L1 (Q9NZQ7 19-238): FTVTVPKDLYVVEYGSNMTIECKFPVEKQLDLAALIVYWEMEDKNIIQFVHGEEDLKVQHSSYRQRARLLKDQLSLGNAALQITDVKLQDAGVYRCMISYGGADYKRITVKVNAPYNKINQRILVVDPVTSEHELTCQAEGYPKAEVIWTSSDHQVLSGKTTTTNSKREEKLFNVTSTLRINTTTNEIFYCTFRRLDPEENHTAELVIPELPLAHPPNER

Compound | IC50 (PD-1/PD-L1; numeric values) [nM] | AUC [1] [µg·h/mL] | Cmax [1] [ng/mL] | Tmax [1] [h] | half-life [1] [h] | IC50 (PD-1/PD-L1; range symbols) [nM]
Cc1c(-c2nc3cc(CN4CCC4)c(OC(F)F)cc3o2)cccc1-c1cccc(-c2nc3cc(CN4CCC[C@H]4C(=O)O)c(OC(F)F)cc3o2)c1C [Example 8, ((2-(3′-(5-(azetidin-1-ylmethyl)-6-(difluoromethoxy)benzo[d]oxazol-2-yl)-2,2′-dimethyl-[1,1′-biphenyl]-3-yl)-6-(difluoromethoxy)benzo[d]oxazol-5-yl)methyl)-L-proline] | 0.75 | 8.24 | 974 | 4 | 3.97 | 
Cc1c(-c2nc3cc(CN4CCC(C)C4)c(OC(F)F)cc3o2)cccc1-c1cccc(-c2nc3cc(CN4CCC[C@H]4C(=O)O)c(OC(F)F)cc3o2)c1C (stereo partly drawn) [Example 61, ((6-(difluoromethoxy)-2-(3′-(6-(difluoromethoxy)-5-((3-methylpyrrolidin-1-yl)methyl)benzo[d]oxazol-2-yl)-2,2′-dimethyl-[1,1′-biphenyl]-3-yl)benzo[d]oxazol-5-yl)methyl)-L-proline] | 1.6 | 118 | 8650 | 4 | 5.37 | 
Cc1c(-c2nc3cc(CN4CCCC4)ccc3o2)cccc1-c1cccc(-c2nc3cc(CN4CCC[C@H]4C(=O)O)c(OC(F)F)cc3o2)c1C [Example 98, ((6-(difluoromethoxy)-2-(2,2′-dimethyl-3′-(5-(pyrrolidin-1-ylmethyl)benzo[d]oxazol-2-yl)-[1,1′-biphenyl]-3-yl)benzo[d]oxazol-5-yl)methyl)-L-proline] |  | 8.7 | 1010 | 1 | 4.47 | 0.1 to 5
Cc1c(-c2nc3cc(CNC[C@@H]4CCCO4)c(OC(F)F)cc3o2)cccc1-c1cccc(-c2nc3cc(CN4CCC[C@H]4C(=O)O)c(OC(F)F)cc3o2)c1C [Example 64, ((6-(difluoromethoxy)-2-(3′-(6-(difluoromethoxy)-5-(((((S)-tetrahydrofuran-2-yl)methyl)amino)methyl)benzo[d]oxazol-2-yl)-2,2′-dimethyl-[1,1′-biphenyl]-3-yl)benzo[d]oxazol-5-yl)methyl)-L-proline] | 1.8 | 61.5 | 4320 | 7 | 7.2 | 
COC(=O)[C@@H]1CCCN1Cc1cc2nc(-c3cccc(-c4cccc(-c5nc6cc(CN7CCC[C@H]7C(=O)O)c(OC(F)F)cc6o5)c4C)c3C)oc2cc1OC(F)F [Example 3, ((6-(difluoromethoxy)-2-(3′-(6-(difluoromethoxy)-5-(((S)-2-(methoxycarbonyl)pyrrolidin-1-yl)methyl)benzo[d]oxazol-2-yl)-2,2′-dimethyl-[1,1′-biphenyl]-3-yl)benzo[d]oxazol-5-yl)methyl)-L-proline] | 89 | 0.461 | 374 | 1 | 0.39 | 
Cc1c(-c2nc3cc(CN4CC5(CC5)C4)c(OC(F)F)cc3o2)cccc1-c1cccc(-c2nc3cc(CN4CCC[C@H]4C(=O)O)c(OC(F)F)cc3o2)c1C [Example 74, ((2-(3′-(5-((5-azaspiro [2.3]hexan-5-yl)methyl)-6-(difluoromethoxy)benzo[d]oxazol-2-yl)-2,2′-dimethyl-[1,1′-biphenyl]-3-yl)-6-(difluoromethoxy)benzo[d]oxazol-5-yl)methyl)-L-proline] | 1.1 | 59.5 | 4460 | 4 | 8.2 | 
Cc1c(-c2ccc(CN3CCCC3)c(F)c2)cccc1-c1cccc(-c2nc3cc(CN4CCC[C@H]4C(=O)O)c(OC(F)F)cc3o2)c1C [Example 243, ((6-(difluoromethoxy)-2-(3″-fluoro-2,2′-dimethyl-4″-(pyrrolidin-1-ylmethyl)-[1,1′:3′,1″-terphenyl]-3-yl)benzo[d]oxazol-5-yl)methyl)-L-proline] | 2.5 | 67.4 | 4890 | 1 | 6.93 | 
Cc1c(-c2nc3cc(CN(C)C)c(OC(F)F)cc3o2)cccc1-c1cccc(-c2nc3cc(CN4CCC[C@H]4C(=O)O)c(OC(F)F)cc3o2)c1C [Example 16, ((6-(difluoromethoxy)-2-(3′-(6-(difluoromethoxy)-5-((dimethylamino)methyl)benzo [d]oxazol-2-yl)-2,2′-dimethyl-[1,1′-biphenyl]-3-yl)benzo[d]oxazol-5-yl)methyl)-L-proline] | 1.1 | 20.9 | 1470 | 4 | 4.8 | 
Cc1c(-c2nc3cc(CN4CC[C@H]4CO)c(OC(F)F)cc3o2)cccc1-c1cccc(-c2nc3cc(CN4CCC[C@H]4C(=O)O)c(OC(F)F)cc3o2)c1C [Example 31, ((6-(difluoromethoxy)-2-(3′-(6-(difluoromethoxy)-5-(((S)-2-(hydroxymethyl)azetidin-1-yl)methyl)benzo[d]oxazol-2-yl)-2,2′-dimethyl-[1,1′-biphenyl]-3-yl)benzo[d]oxazol-5-yl)methyl)-L-proline] | 0.5 | 6.61 | 1000 | 1 | 9.81 | 

Further lines, results first:

IC50 (PD-1/PD-L1; numeric values) [nM] | AUC [1] [µg·h/mL] | Cmax [1] [ng/mL] | Tmax [1] [h] | half-life [1] [h] | IC50 (PD-1/PD-L1; range symbols) [nM] | Compound
0.2 | 0.271 | 218 | 0.5 | 3.3 |  | Cc1c(-c2nc3cc(CN4CCC[C@H]4C(=O)O)c(OC(F)F)cc3o2)cccc1-c1cccc(-c2nc3cc(CN4CCC[C@H]4C(=O)O)c(OC(F)F)cc3o2)c1C [Example 2, (2′S)-(((2,2′-dimethyl-[1,1′-biphenyl]-3,3′-diyl)bis(6-(difluoromethoxy)benzo[d]oxazole-2,5-diyl))bis(methylene))di-L-proline]
2.6 | 46.5 | 4280 | 4 | 9.69 |  | Cc1c(-c2nc3cc(CN4CCC[C@H]4C(=O)O)c(OC(F)F)cc3o2)cccc1-c1cccc(-c2nc3cc(CN4CCCC4(C)C)c(OC(F)F)cc3o2)c1C [Example 62, ((6-(difluoromethoxy)-2-(3′-(6-(difluoromethoxy)-5-((2,2-dimethylpyrrolidin-1-yl)methyl)benzo[d]oxazol-2-yl)-2,2′-dimethyl-[1,1′-biphenyl]-3-yl)benzo[d]oxazol-5-yl)methyl)-L-proline]
 | 2020 | 117000 | 24 |  | 0.1 to 5 | Cc1c(-c2nc3cc(CN4CCC[C@H]4C(=O)O)c(OC(F)F)cc3o2)cccc1-c1cccc(-c2nc3cc(CN4CCC(C)C4)cc(C(F)(F)F)c3o2)c1C (stereo partly drawn) [Example 88, ((6-(difluoromethoxy)-2-(2,2′-dimethyl-3′-(5-((3-methylpyrrolidin-1-yl)methyl)-7-(trifluoromethyl)benzo[d]oxazol-2-yl)-[1,1′-biphenyl]-3-yl)benzo[d]oxazol-5-yl)methyl)-L-proline]
1.4 | 22.9 | 2030 | 4 | 6.48 |  | Cc1c(-c2nc3cc(CN4CCC[C@H]4C(=O)O)c(OC(F)F)cc3o2)cccc1-c1cccc(-c2nc3cc(CN4CCCC4)cc(F)c3o2)c1C [Example 95, ((6-(difluoromethoxy)-2-(3′-(7-fluoro-5-(pyrrolidin-1-ylmethyl)benzo[d]oxazol-2-yl)-2,2′-dimethyl-[1,1′-biphenyl]-3-yl)benzo[d]oxazol-5-yl)methyl)-L-proline]
8 | 29 | 6350 | 2 | 5.43 |  | Cc1c(-c2nc3c(o2)CCN(C)C3)cccc1-c1cccc(-c2nc3cc(CN4CCC[C@H]4C(=O)O)c(OC(F)F)cc3o2)c1C [Example 314, ((6-(difluoromethoxy)-2-(2,2′-dimethyl-3′-(5-methyl-4,5,6,7-tetrahydrooxazolo[4,5-c]pyridin-2-yl)-[1,1′-biphenyl]-3-yl)benzo[d]oxazol-5-yl)methyl)-L-proline]
1.2 | 3.45 | 589 | 1 | 6.2 |  | Cc1c(-c2nc3cc(CN4CCC(O)C4)c(OC(F)F)cc3o2)cccc1-c1cccc(-c2nc3cc(CN4CCC[C@H]4C(=O)O)c(OC(F)F)cc3o2)c1C (stereo partly drawn) [Example 14, ((6-(difluoromethoxy)-2-(3′-(6-(difluoromethoxy)-5-((3-hydroxypyrrolidin-1-yl)methyl)benzo[d]oxazol-2-yl)-2,2′-dimethyl-[1,1′-biphenyl]-3-yl)benzo[d]oxazol-5-yl)methyl)-L-proline]
1.5 | 8.92 | 727 | 4 | 11 |  | Cc1c(-c2nc3cc(CN4CC(N(C)C)C4)c(OC(F)F)cc3o2)cccc1-c1cccc(-c2nc3cc(CN4CCC[C@H]4C(=O)O)c(OC(F)F)cc3o2)c1C [Example 33, ((6-(difluoromethoxy)-2-(3′-(6-(difluoromethoxy)-5-((3-(dimethylamino)azetidin-1-yl)methyl)benzo[d]oxazol-2-yl)-2,2′-dimethyl-[1,1′-biphenyl]-3-yl)benzo[d]oxazol-5-yl)methyl)-L-proline]
3.2 | 5.8 | 1280 | 1 | 2.79 |  | Cc1c(-c2nc3cc(CNC4COC4)c(OC(F)F)cc3o2)cccc1-c1cccc(-c2nc3cc(CN4CCC[C@H]4C(=O)O)c(OC(F)F)cc3o2)c1C [Example 28, ((6-(difluoromethoxy)-2-(3′-(6-(difluoromethoxy)-5-((oxetan-3-ylamino)methyl)benzo [d]oxazol-2-yl)-2,2′-dimethyl-[1,1′-biphenyl]-3-yl)benzo[d]oxazol-5-yl)methyl)-L-proline]

— patent US12187713B2, “Immunomodulators, compositions and methods thereof” (Betta Pharmaceuticals Co., Ltd, priority 2019, dated 2025)
